Test results taken from paper PMC12021451 (Planta Medica, 2025).
Counter-ions that a name gives are not always drawn.

Assay: blood-to-plasma concentration ratio
Assay type: in vitro ADME, human
Conditions: range of 4 to 1000 ng/mL

Cn1c(=O)c2c(ncn2C)n(C)c1=O [Caffeine]
Effect of the compound concentration on the Rb value: not observed

CN(C)CCCN1c2ccccc2CCc2ccccc21 [Imipramine, imipramine hydrochlorid]
Effect of the compound concentration on the Rb value: not observed

C/C=C1/C[C@@H](C)[C@](O)(CO)C(=O)OCC2=CC[N@@+]3([O-])CC[C@@H](OC1=O)[C@@H]23 [Retrorsine N -oxide]
Effect of the compound concentration on the Rb value: no concentration dependency was observed
